The values below come from US10765754B2, “Compositions and methods related to inhibition of respiratory syncytial virus entry” (priority 2015, dated 2020).

Where two headings read alike, the source gives them in different places. Starred links: 1 amine or outer side, 2 acyl side, 3 side chain; linkers in the order of their positions; H or OH if unused. Positions of bridges follow the written chain, without caps; N, C: chain ends. Non-standard residues stand in square brackets, D forms with d. Residues, ends and D or L forms follow the SMILES beside them. Chains are numbered I, II in the order given. X1 = NCCOCCOCCOCCOCCOCCOCCOCCOCCOCCOCCOCCOCCOCCOCCOCCOCCOCCOCCOCCOCCOCCOCCOCCOCCOCCOCCOCCOCCC(=O)NC(CCC(=O)[*:1])(CCC(=O)[*:2])CCC(=O)[*:3]; PEG6 = NCCOCCOCCOCCOCCOCCOCCC(=O)O

One assay deals with T1, RSV-B/IZN45 (Human respiratory syncytial virus B, UniProt O36634).
T1 construct: N-trimer Mimics Synthesized; made in house; host or cells: chemical peptide synthesis
Kind of assay: biochemical. Type of assay: binding. As to conditions: RSV-B/IZN45. An excerpt:
(§1) IZN45 N-trimer mimic comprises the IZ domain, a highly soluble, designed coiled-coil that helps solubilize the N-trimer, along with the C-terminal (bottom) 45 residues of the RSV N-trimer. IZN45 encompasses the full ordered portion of the N-trimer except for three N-terminal residues (removed to maintain a continuous heptad repeat with the IZ domain). The interactions between 35-residue RSV C-peptides, T108 and T118 (Lambert et al., 1996, Proc. Natl. Acad. Sci. USA 93:2186-2191), and IZN45 was examined by surface plasmon resonance (SPR). SPR is a gold standard assay to measure the kinetics and affinity of biological interactions. […] The Biotinylated L-form of RSV target IZN45 was captured onto one lane of a NeutrAvidin coated SPR chip. A mutant version of IZN45 containing four mutated residues along the N-trimer groove designed to disrupt binding (IZN45 Full Mut, negative control) was captured onto a separate lane of the NeutrAvidin chip. T118, corresponding to the C-terminal portion of the RSV F ectodomain, which is known to interact with the RSV N-trimer groove, was flowed over the various surfaces. […] The surfaces were regenerated with a detergent (0.1% SDS) after each injection of analyte. Various concentrations of T118 were measured in duplicate or triplicate injections. D-peptide interactions with IZN45 and IZN45-Full Mut surfaces were also measured using this method.
(§2) Peptides from the ‘winning’ phage clones from each library were synthesized as D-peptides. If solubility of the peptides was limited, N- or C-terminal charged residue(s) (e.g., lysine) were attached as necessary as previously described for HIV peptides in Eckert et al., 1999, Cell 99:103-15, incorporated by reference in its entirety. Binding affinity and kinetics of the D-peptide inhibitors to the IZN45 and IZN45 mutants was characterized by SPR (Biacore 3000), using methods as described in Welch et al., 2007, Proc. Natl. Acad. Sci. USA 104:16828-33, incorporated by reference in its entirety.

Another assay addresses IZN45. Kind of assay: SPR binding to IZN45 N-trimer mimic, subtype not stated. On the set-up: species or system RSV.
Excerpt: as §1, §2
A general note: Surface plasmon resonance follows binding to a sensor surface in real time, without labels.

The next assay has as its target T2, RSV-A/IZN45 (Human respiratory syncytial virus A, UniProt P03420).
T2 construct: N-trimer Mimics Synthesized; made in house; host or cells: chemical peptide synthesis
Kind of assay: SPR binding to RSV-A IZN45 N-trimer mimic. Conditions: Kd, RSV-A/IZN45.
Excerpt: as §1, §2

Another assay has as its target T3, RSV-A F protein (Human respiratory syncytial virus A, UniProt P03420).
T3 construct: expressed in transfected cells; host or cells: 293 T cells
Put plainly: cell-based. How it is done: The RSV Syncytia reduction assay was used to evaluate D-peptide inhibitors of RSV entry (IC50). In brief, 293 T cell were plated in a 96-well plate and a 6-well plate. The cells in the 96-well plate were co-transfected with DNA encoding the RSV F protein (or RSV G protein as a negative control) and DNA encoding firefly luciferase downstream of multiple GAL4 binding sites (CheckMate Mammalian Two-Hybrid system, Promega). These cells were designated the effector cells. The cells in the 6-well plate were transfected with GAL4:Id and VP16:MyoD fusion constructs, which interact and drive gene expression in the presence of GAL4 binding sites. These cells were the target cells. At 24 hours post-transfection, the media is removed from the effector cells and D-peptide inhibitors at 2× concentration (diluted in fresh media) were added. Also at 24 hours post-transfection, the target cells are washed with PBS, gently dissociated from the 6-well plate using Versene (0.48 mM EDTA in PBS), and overlaid (at equal volume) onto the effector cells containing 2× inhibitor. At 48 h post-transfection, the cells are lysed using Glo Lysis Buffer (Promega). Bright Glo luciferase assay substrate is added and luminescent signal from expressed luciferase is measured. Luciferase is only expressed in effector cells that fuse (form syncytia) with target cells.

In assay [1] the test system is RSVA-IZN45 (SEQ ID NO: 34). As to conditions: Table 8 Result column. The text has this: AC-K-(PEG4)DDG-RSVP32 (SEQ ID NO:142) is an affinity matured RSV N-trimer binder identified from phage display and represents an optimized binding solution from a disulfide constrained CX10C (disulfide constrained 10-mer) library based on the 20 natural amino acids. […] Using the co-crystal structure of RSVP32 (SEQ ID NO:31) and RSVA-IZN21 (SEQ ID NO:34), a molecular-modeling suite (ICM-Pro, MolSoft LLC) was used to model various natural and non-natural amino acid substitutions and calculate binding energies. The following parameters were used to calculate binding energy: electrostatic boundary element energy, H-bonds, solvation energy estimated as surface tension, and side-chain entropy.

The target in the next assay is IZN45 Full Mut (Human respiratory syncytial virus B, UniProt O36634, A170W/A177W/D194W/G184W/N197K). As to conditions: IZN45 Full Mut / IZN45_Mut, SPR.
Excerpt: as §1, with “method. […]” for “method.”

A further assay has as its system HIV. As to conditions: standard viral passaging, escalating inhibitor; cited from earlier work.
Setting [2] is: synthesized peptide, KD determined by SPR.
[3] abbreviates: running text/figure legend, IZN45 subtype not stated.
The mark [4] stands for this setting: (L) inhibitors of RSV, controls for D-peptide studies, assay not stated in Table 6, read-out: IC50.
The mark [5] stands for this setting: IC50, (L) inhibitors of RSV, controls for D-peptide studies, assay not stated in Table 6.
Where [6] appears, read: subsequent trimer/compound made from peptide, SPR.
Where [7] appears, read: IC50, subsequent trimer/compound made from peptide, syncytia reduction assay using RSV-A F protein.

With `CC(=O)N[C@H](CCCCN)C(=O)NCCOCCOCCOCCOCCOCCOCCC(=O)NCC(=O)N[C@H](C)C(=O)N[C@@H]1CSSC[C@H](C(=O)N[C@H](C)C(=O)N[C@H](C)C(N)=O)NC(=O)[C@@H](Cc2c[nH]c3ccccc23)NC(=O)[C@@H](CC(=O)O)NC(=O)[C@@H](CC(C)C)NC(=O)[C@@H](CC(C)C)NC(=O)[C@@H](Cc2c[nH]c3ccccc23)NC(=O)[C@@H](Cc2c[nH]cn2)NC(=O)[C@H]2CCCN2C(=O)[C@@H](CCC(=O)O)NC(=O)[C@@H](CC(N)=O)NC(=O)[C@@H](CCCNC(=N)N)NC1=O` [Ac-K(PEG6)-RSVP20] (Ac-[dK][PEG6]G[dA][dC][dR][dN][dE][dP][dH][dW][dL][dL][dD][dW][dC][dA][dA]-NH2; disulfide 5-16), the Kd stood at 4100 nM on RSV-B/IZN45 (setting [2]); 3700 nM on IZN45 (b401, printed without unit); 3700 nM on IZN45 (setting [3]); 3700 nM on RSV-A/IZN45 (setting [2]).
In the case of `CC(=O)N[C@H](CCCCN)C(=O)NCC(=O)NCC(=O)N[C@H](C)C(=O)N[C@@H]1CSSC[C@H](C(=O)N[C@H](C)C(=O)N[C@H](C)C(N)=O)NC(=O)[C@@H](Cc2c[nH]c3ccccc23)NC(=O)[C@@H](CC(=O)O)NC(=O)[C@@H](CC(C)C)NC(=O)[C@@H](CC(C)C)NC(=O)[C@@H](Cc2c[nH]c3ccccc23)NC(=O)[C@@H](Cc2c[nH]cn2)NC(=O)[C@H]2CCCN2C(=O)[C@@H](CCC(=O)O)NC(=O)[C@@H](CC(N)=O)NC(=O)[C@@H](CCCNC(=N)N)NC1=O` [Ac-KG-RSVP20] (Ac-[dK]GG[dA][dC][dR][dN][dE][dP][dH][dW][dL][dL][dD][dW][dC][dA][dA]-NH2; disulfide 5-16), the IC50 against RSV-A F protein (IC50, synthesized peptide, syncytia reduction assay using RSV-A F protein) worked out at 673000 nM.
In the case of “(biotin-PEG2)GKG-IKKEIEAIKKEQEAIKKKIEALEGEVNKIKSALLSTNKAVVSLSNGVSVLTSKVLDLKNYIDKQLLPIV-NH2 [(Biotin-PEG2)GKG-RSVA IZN48]”, the IC50 at RSV-A F protein (setting [4]) stood at 215 nM.
“Ac-GECVN(HRG)PEWLLDWCGT-NH2 [SEQ ID NO: 147]”: in assay [1], the “Decreased potency compared to RSVP32” value was 2.6-fold compared and the potency worked out at 65 nM.
In the same order, the values of “Ac-GECVNQPEWLLDWCGT-NH2 [SEQ ID NO: 151]” are ~2-fold compared and 53 nM.
On the same counts, the results for Ac-GEVCRPEWLLDWCGT-NH2 [SEQ ID NO: 159] are 14.4-fold and 360 nM.
Molecule “Ac-IKKEIEAIKKEQEAIKKKIEAIEKEVNKIKSALLSTNKAVVSLSNGVSVLTSKVLDLKNYIDKQLLPIV-NH2 [Ac-RSV-A IZN45]” showed an IC50 on RSV-A F protein (setting [5]) of 6 nM.
GECVNRPEWLLDWCGT [RSVP32]: in assay [1], the potency stood at 25 nM.
The molecule “H-YGFDASISQVNEKINQSLAFIRKSDELLHNVNAGKST-NH2 [YG-T118]” displayed an IC50 at RSV-A F protein (setting [5]) of 8000 nM.
On the same count and under the same terms, the same measure for “I: Ac-YGFDASISQVNEKINQSLAFIRKSDELLHNVNAGKSTG[PEG6]KGKG-NH2 / II: Ac-YGFDASISQVNEKINQSLAFIRKSDELLHNVNAGKSTG[PEG6] / III: Ac-YGFDASISQVNEKINQSLAFIRKSDELLHNVNAGKSTG[PEG6] (amide I:40-II:C, I:42-III:C) [YG-T118-Tricasso]”: 650 nM.
For the molecule “I: Ac-[dK][PEG6]G[dA][dC][dR][dN][dE][dP][dH][dW][dL][dL][dD][dW][dC][dA][dA]-NH2 / II: Ac-[dK][PEG6]G[dA][dC][dR][dN][dE][dP][dH][dW][dL][dL][dD][dW][dC][dA][dA]-NH2 / III: Ac-[dK][PEG6]G[dA][dC][dR][dN][dE][dP][dH][dW][dL][dL][dD][dW][dC][dA][dA]-NH2 (linker I:1-II:1-III:1 via X1; disulfide I:5-I:16, II:5-II:16, III:5-III:16; C-terminus assumed) [Ac-K(PEG6)-RSVP20-trimer]”, the Kd turned out to be 1.7 nM on RSV-B/IZN45 (setting [6]), 0.3 nM at IZN45 (setting [3]) and 0.3 nM on RSV-A/IZN45 (setting [6]). Besides, the “improvement in binding affinity of trimer over the corresponding monomer” value in the assay on IZN45 (trimerization) is recorded as 10,000 fold.
Take “I: Ac-[dK][PEG6]G[dH][dA][dC][dV][dN][dR][dP][dE][dW][dL][dL][dD][dW][dC]G[dR]G[dR][dR]-NH2 / II: Ac-[dK][PEG6]G[dH][dA][dC][dV][dN][dR][dP][dE][dW][dL][dL][dD][dW][dC]G[dR]G[dR][dR]-NH2 / III: Ac-[dK][PEG6]G[dH][dA][dC][dV][dN][dR][dP][dE][dW][dL][dL][dD][dW][dC]G[dR]G[dR][dR]-NH2 (linker I:1-II:1-III:1 via X1; disulfide I:6-I:17, II:6-II:17, III:6-III:17) [Ac-K(PEG6)G-RSVP26-GRR-trimer]”: on RSV-A F protein (setting [7]), the IC50 came to 5500 nM.
On the same count and under the same terms, the figure for “I: Ac-[dK][PEG6][dD][dD]G[dS][dM][dC][dV][dN][dR][dP][dE][dW][dL][dL][dD][dW][dC]G[dT]-NH2 / II: Ac-[dK][PEG6][dD][dD]G[dS][dM][dC][dV][dN][dR][dP][dE][dW][dL][dL][dD][dW][dC]G[dT]-NH2 / III: Ac-[dK][PEG6][dD][dD]G[dS][dM][dC][dV][dN][dR][dP][dE][dW][dL][dL][dD][dW][dC]G[dT]-NH2 (linker I:1-II:1-III:1 via X1; disulfide I:8-I:19, II:8-II:19, III:8-III:19) [Ac-K(PEG6)DDG-RSVP24-trimer]” is 5500 nM; for “I: Ac-[dS][dM][dC][dV][dN][dR][dP][dE][dW][dL][dL][dD][dW][dC]G[dT]G[dD][dD][PEG6][dK]-NH2 / II: Ac-[dS][dM][dC][dV][dN][dR][dP][dE][dW][dL][dL][dD][dW][dC]G[dT]G[dD][dD][PEG6][dK]-NH2 / III: Ac-[dS][dM][dC][dV][dN][dR][dP][dE][dW][dL][dL][dD][dW][dC]G[dT]G[dD][dD][PEG6][dK]-NH2 (disulfide I:3-I:14, II:3-II:14, III:3-III:14; linker I:21-II:21-III:21 via X1; C-terminus assumed) [Ac-RSVP24-GDD(PEG6)K-trimer]” it is 4600 nM.
For “LEGEVNKIKSALLSTNKAVVSLSNGVSVLTSKVLDLKNYIDKQLLPIVNIKKEIEAIKKEQEAIKKKIEAI-GKG-(Glu-biotinyl-PEG)-NH2 [RSVA N49IZ-GKG(Glu-Biotinyl-PEG)]”, the IC50 at RSV-A F protein (setting [4]) was found to be 102 nM.
Consider “T118: 35-residue RSV C-peptide corresponding to the C-terminal portion of the RSV F ectodomain (FDASISQVNEKINQSLAFIRKSDELLHNVNAGKST)”, for which, in the assay with IZN45 Full Mut, the “binding to mutant control target” value was “did not bind”.
Regarding enfuvirtide, the “time in which resistance develops” value in the assay on HIV is 2-3 weeks.

In general, Kd refers to the equilibrium constant for the complex coming apart. A high value points to weaker binding. The term IC50 denotes the concentration that gives 50% inhibition.
